Consider three compounds from publication PMC9648375, “Identification of the first-in-class dual inhibitors of human DNA topoisomerase IIα and indoleamine-2,3-dioxygenase 1 (IDO 1) with strong anticancer properties” (Journal of Enzyme Inhibition and Medicinal Chemistry, 2022).

Broadly, the IC50 is the point on the concentration scale where inhibition reaches its midpoint. Broadly, the melting point is the temperature of the solid-liquid transition.

One data set can be described thus: MTT assay. As to conditions: human, HEK-293 cells (normal reference cell line), HEK-293 (normal cells), read-out: IC50, cytotoxicity. The data set is classed as cell-based. Here is the method: (§1) Therefore, the whole set of compounds were tested by using MTT assay in order to check their overall cytotoxic effect. The growth of cells was monitored after 24 and 48 h of incubation with the increased concentrations (1–100 µg/ml) of the thiosemicarbazide derivatives. […] This confirms that the compounds tested combine different mechanisms of anticancer activity, and DNA topoisomerase II inhibition is only one of them.
(§2) Cytotoxicity of the synthesised compounds were examined against a panel of the cancer cell lines, MCF-7 (estrogen-dependent human breast cancer cells), MDA-MB-231 (oestrogen-independent human breast cancer cells), SCC- 25 (squamous cell carcinoma of the tongue), FaDu (squamous cell carcinoma of the pharynx), A- 549 (human lung carcinoma), AGS (human gastric adenocarcinoma), LS-180, HT-29 (colon cancer cell lines), T98G (glioblastoma cells), A375 (melanoma cells). Human embryonic kidney (HEK-293) cells and human normal skin fibroblasts (CRL-2072) were used as reference cell lines. The investigated cell lines were obtained from American Type Culture Collection (ATCC; Manassas, VA, USA). A375, MCF-7, MDA-MB-231, T98G cells were cultured in Dulbecco’s Modified Eagle’s Medium (DMEM) (Sigma Aldrich, St. Louis, MO, USA) supplemented with 10% heat inactivated foetal bovine serum (FBS), penicillin (100 U/mL), and streptomycin (100 μg/mL). SCC-25 cells were cultured in 1:1 mixture of Dulbecco’s modified Eagle’s medium and Ham’s F12 Medium (Sigma Aldrich, St. Louis, MO, USA) supplemented with 400 ng/ml hydrocortisone, 10% FBS, penicillin (100 U/mL), and streptomycin (100 μg/mL). A549 and AGS cells were maintained in F-12K Medium (Sigma Aldrich, St. Louis, MO, USA). LS-180 and FaDu cells were cultured in Eagle’s Minimum Essential Medium. HT-29 cells were maintained in McCoy’s 5 A Medium (Sigma Aldrich, St. Louis, MO, USA) supplemented with 10%FBS, penicillin (100 U/mL), and streptomycin (100 μg/mL). All the cells were maintained at 37 °C in a humidified atmosphere of 5% CO2.
(§3) The synthesised compounds were dissolved in DMSO in order to obtain stock solutions. At the day of the experiment, the suspension of cells (1 × 10^5 cells/mL) in the respective medium was applied to a 96-well plate at 100 μL per well. […] The control cells were cultured only with a medium containing 2% FBS. Cytotoxicity of DMSO was also checked at concentrations present in respective dilutions of stock solution. After 24 h (or 48 h) of incubation, 15 μL of MTT working solution (5 mg/mL in PBS) was added to each well. The plate was incubated for 3 h. Subsequently, 100 μL of 10% SDS solution was added to each well. Cells were incubated overnight at 37 °C to dissolve the precipitated formazan crystals. The concentration of the dissolved formazan was evaluated by measuring the absorbance at λ = 570 nm, using a microplate reader (Epoch, BioTek Instruments, Inc., Winooski, VT, USA). At least two independent experiments were performed in triplicates. The results of the MTT assay were expressed as mean ± SD. […] IC50 values of the investigated derivatives and standards were calculated using the IC50 calculator.[23]
(In general: Tetrazolium dyes change colour on reduction, which living cells bring about.)

The test system of a further data set is A375 (melanoma cells). The experiment in a line: MTT assay. The data set is classed as cell-based. As to conditions: Homo sapiens, read-out: IC50, cytotoxicity. How it is done:
as §1, §2, §3

Data set [1] concerns A549 (human lung carcinoma). Nature of the data set: MTT assay. The data set is classed as cell-based. Particulars: read-out: IC50, cytotoxicity. How it is done: as §1, §2, §3
Data set [2] deals with AGS (human gastric adenocarcinoma). Nature of the data set: MTT assay. The data set is classed as cell-based. As to conditions: read-out: IC50, cytotoxicity. Here is the method: as §1, §2, §3
The test system of data set [3] is FaDu (squamous cell carcinoma of the pharynx). Nature of the data set: MTT assay. The data set is classed as cell-based. As to conditions: Homo sapiens, read-out: IC50, cytotoxicity. Here is the method:
as §1, §2, §3

The test system of data set [4] is HT-29 (colon cancer cell line). Nature of the data set: MTT assay. Particulars: Homo sapiens, HT-29, MTT, read-out: IC50, cytotoxicity. The data set is classed as cell-based. How it is done: as §1, §2, §3
The subject of data set [5] is LS180 (colon cancer cell line). The experiment in a line: MTT assay. The data set is classed as cell-based. As to conditions: Homo sapiens, read-out: IC50, cytotoxicity. Here is the method: as §1, §2, §3
The subject of data set [6] is MCF-7 (estrogen-dependent human breast cancer cells). Nature of the data set: MTT assay. The data set is classed as cell-based. As to conditions: MCF7, MCF-7, MTT, read-out: IC50, cytotoxicity. Here is the method: as §1, §2, §3
The subject of data set [7] is MDA-MB-231 (estrogen-independent human breast cancer cells). The experiment in a line: MTT assay. The data set is classed as cell-based. Particulars: MDA-MB-231, MTT, read-out: IC50, cytotoxicity. How it is done:
as §1, §2, §3

The subject of data set [8] is SCC-25 (squamous cell carcinoma of the tongue). The experiment in a line: MTT assay. As to conditions: Homo sapiens, SCC-25, MTT, read-out: IC50, cytotoxicity. The data set is classed as cell-based. How it is done: as §1, §2, §3
In data set [9] the test system is T98G (glioblastoma cells). The experiment in a line: MTT assay. The data set is classed as cell-based. Particulars: Homo sapiens, read-out: IC50, cytotoxicity. How it is done:
as §1, §2, §3

In brackets after ≈: the same amount, converted by molar mass. Read-outs that look alike come from different tables or passages of the source.

In turn, `O=C(Cc1cccc2ccccc12)NNC(=S)Nc1c(F)cccc1F` [Compound 10, 4-(2,6-Difluorophenyl)-1-[(naphth-1-yl)acetyl]thiosemicarbazide] displayed a melting point of 186 to 188 °C. Also, in the data set “MTT assay”, the half-inhibitory concentration (IC50) at 24 h was 63.7 µg/mL (≈ 172 µM) and the half-maximal inhibitory concentration (IC50) at 48 h worked out at 19.5 µg/mL (≈ 52.5 µM). Moreover, the IC50 with A375 (melanoma cells) (A-375, 24h) was 47.9 µg/mL (≈ 129 µM). Moreover, the IC50 in the data set on A375 (melanoma cells) (A-375, 48 h) is 30.1 µg/mL (≈ 81.2 µM). The IC50 in data set [1] (24h) came out at 92.6 µg/mL (≈ 249 µM). For the same compound, in data set [1] (48h), the concentration for half-maximal inhibition (IC50) was determined as 32.8 µg/mL (≈ 88.4 µM). The IC50 in data set [2] (24h) stood at 29.5 µg/mL (≈ 79.3 µM). In addition, in data set [2] (48 h), the IC50 worked out at 21.1 µg/mL (≈ 56.7 µM). The IC50 in data set [3] (24h) came out at 20.1 µg/mL (≈ 54.2 µM). In addition, the IC50 in [3] (48 h) was determined as 29.7 µg/mL (≈ 80.1 µM). Further, the half-maximal inhibitory concentration (IC50) in data set [4] (24h) was determined as 32.9 µg/mL (≈ 88.7 µM). Also, the half-inhibitory concentration (IC50) in data set [4] (48 h) is 32.2 µg/mL (≈ 86.6 µM). Moreover, the IC50 in data set [5] (24h) turned out to be 72.4 µg/mL (≈ 195 µM). The IC50 in data set [5] (48 h) worked out at 12.6 µg/mL (≈ 33.8 µM). For the same compound, the IC50 in data set [6] (24h) was 64.1 µg/mL (≈ 173 µM). For the same compound, in data set [6] (48h), the 50% inhibitory concentration (IC50) turned out to be 20.6 µg/mL (≈ 55.6 µM). For the same compound, the IC50 in [7] (24h) was 83.4 µg/mL (≈ 225 µM). Further, in data set [7] (48h), the IC50 was determined as 68.1 µg/mL (≈ 183 µM). In addition, the IC50 in [8] (24h) worked out at 52.4 µg/mL (≈ 141 µM). Moreover, the half-inhibitory concentration (IC50) in [8] (48 h) amounted to 23.9 µg/mL (≈ 64.2 µM). Further, the concentration for half-maximal inhibition (IC50) in [9] (24h) came to 47.2 µg/mL (≈ 127 µM). The IC50 in data set [9] (48h) was 30.6 µg/mL (≈ 82.5 µM).
In the case of `O=C(NNC(=S)NC(=O)c1ccccc1Cl)c1ccc(O)c([N+](=O)[O-])c1` [Compound 7, 4-(2-Chlorobenzoyl)-1-(4-hydroxy-3-nitrobenzoyl)thiosemicarbazide], the half-inhibitory concentration (IC50) at 24 h in the data set “MTT assay” was 67.2 µg/mL (≈ 170 µM). Moreover, the IC50 at 48 h in “MTT assay” is 32.7 µg/mL (≈ 82.8 µM). The IC50 is above 100 µg/mL with A375 (melanoma cells) (A-375, 24h); 13.9 µg/mL (≈ 35.2 µM) in the data set on A375 (melanoma cells) (A-375, 48 h); above 100 µg/mL in data set [1] (24h); above 100 µg/mL in data set [1] (48h); above 100 µg/mL in [2] (24h); 18.8 µg/mL (≈ 47.5 µM) in data set [2] (48 h). In addition, the IC50 in [3] (24h) was 33.5 µg/mL (≈ 84.9 µM); in data set [3] (48 h) it was 22.5 µg/mL (≈ 56.9 µM); in data set [4] (24h) it was 47.4 µg/mL (≈ 120 µM); in [4] (48 h) it was 7.18 µg/mL (≈ 18.2 µM); in [5] (24h) it was above 100 µg/mL; in data set [5] (48 h) it was 24.7 µg/mL (≈ 62.5 µM). Further, the concentration for half-maximal inhibition (IC50) in data set [6] (24h) was above 100 µg/mL; in data set [6] (48h), 24.8 µg/mL (≈ 62.9 µM); in data set [7] (24h), above 100 µg/mL; in data set [7] (48h) it was 69.4 µg/mL (≈ 176 µM); in data set [8] (24h), 42.4 µg/mL (≈ 107 µM); in data set [8] (48 h), 24.3 µg/mL (≈ 61.6 µM). The figures for the half-maximal inhibitory concentration (IC50) in data set [9] (24h) and in data set [9] (48h) were 11.4 µg/mL (≈ 29 µM) and 10.7 µg/mL (≈ 27 µM), respectively.
In turn, `O=C(NNC(=S)Nc1c(F)cccc1F)c1ccccc1[N+](=O)[O-]` [Compound 4, 4-(2,6-Difluorophenyl)-1-(2-nitrobenzoyl)thiosemicarbazide] yielded a melting point of 278 to 280 °C. Moreover, in the data set “MTT assay”, the half-maximal inhibitory concentration (IC50) at 24 h was above 100 µg/mL and the IC50 at 48 h is above 100 µg/mL. Also, the IC50 with A375 (melanoma cells) (A-375, 24h) is above 100 µg/mL. Also, in the data set on A375 (melanoma cells) (A-375, 48 h), the half-inhibitory concentration (IC50) is 14.8 µg/mL (≈ 42 µM). The IC50 in data set [1] (24h) is above 100 µg/mL. For the same compound, the concentration for half-maximal inhibition (IC50) in data set [1] (48h) was above 100 µg/mL. The 50% inhibitory concentration (IC50) in data set [2] (24h) is above 100 µg/mL. Also, the IC50 in data set [2] (48 h) was 63.9 µg/mL (≈ 181 µM). The IC50 in data set [3] (24h) was above 100 µg/mL. Moreover, in [3] (48 h), the IC50 is 39.2 µg/mL (≈ 111 µM). Also, the 50% inhibitory concentration (IC50) in data set [4] (24h) came to 25 µg/mL (≈ 71 µM). Moreover, in data set [4] (48 h), the IC50 is above 100 µg/mL. The concentration for half-maximal inhibition (IC50) in data set [5] (24h) is above 100 µg/mL. Besides, the concentration for half-maximal inhibition (IC50) in data set [5] (48 h) was determined as 55.6 µg/mL (≈ 158 µM). Also, in data set [6] (24h), the IC50 is above 100 µg/mL. The concentration for half-maximal inhibition (IC50) in data set [6] (48h) was 19.4 µg/mL (≈ 55.1 µM). Also, the concentration for half-maximal inhibition (IC50) in [7] (24h) was above 100 µg/mL. Further, in [7] (48h), the IC50 was found to be 32.5 µg/mL (≈ 92.2 µM). The IC50 in data set [8] (24h) was above 100 µg/mL. The 50% inhibitory concentration (IC50) in [8] (48 h) amounted to 40.9 µg/mL (≈ 116 µM). In data set [9] (24h), the half-maximal inhibitory concentration (IC50) amounted to 55.5 µg/mL (≈ 157 µM). Also, in [9] (48h), the concentration for half-maximal inhibition (IC50) stood at 7.26 µg/mL (≈ 20.6 µM).
